Measured values: PubChem BioAssay AID290 (DTP/NCI, 2004)
“And” between values parts separate entries of the source, which are not always exact repeats. Equal entries are not always repeated. Records with an inconclusive call do not appear.

Test system: mice, P1798 lymphosarcoma sc, survival or tumor weight T/C
Experiment: NCI In Vivo Anticancer Drug Screen. Data for tumor model P1798 Lymphosarcoma (subcutaneous) in unknown mice
Details: endpoint: mean tumor weight, higher = larger tumour
Protocol: The antitumor activity of compounds was measured in mice bearing transplantable tumors. Survival or tumor size were measured and the results are expressed as the measurement made in the treated group (T) divided by the measurement made in the vehicle treated control group (C). The tumor model used in this assay is P1798 Lymphosarcoma (subcutaneous) in unknown mice

[1] = dose: 0.63 mg/kg/injection, schedule: Q01DX010 (ip), vehicle: carboxymethylcellulose (CMC)
[2] = dose: 1.25 mg/kg/injection, schedule: Q01DX010 (ip), vehicle: carboxymethylcellulose (CMC)
[3] = dose: 2.0 mg/kg/injection, schedule: Q01DX010 (ip), vehicle: saline
[4] = dose: 4.0 mg/kg/injection, schedule: Q01DX010 (ip), vehicle: saline

**Q.** Which T/C (dose: 0.31 mg/kg/injection, schedule: Q01DX010 (ip), vehicle: carboxymethylcellulose (CMC)) does the source give for Nc1nc(=S)c2ncn(C3OC(CO)C(O)C3O)c2[nH]1 (stereo not drawn) here?
**A.** 79 % of control

**Q.** And the T/C [1]?
**A.** 71 % of control

**Q.** And the T/C [2]?
**A.** 50 % of control

**Q.** And the T/C [3]?
**A.** 55 % of control

**Q.** And the T/C (dose: 2.5 mg/kg/injection, schedule: Q01DX010 (ip), vehicle: carboxymethylcellulose (CMC))?
**A.** 31 % of control

**Q.** And the T/C [4]?
**A.** 63 % of control

**Q.** Which T/C (dose: 0.5 mg/kg/injection, schedule: Q01DX010 (ip), vehicle: saline) does the source give for NC(Cc1ccc(N(CCCl)CCCl)cc1)C(=O)O (stereo not drawn) here?
**A.** 86 % of control

**Q.** What about the T/C [1] of the same compound?
**A.** 117 % of control

**Q.** What about the T/C (dose: 1.0 mg/kg/injection, schedule: Q01DX010 (ip), vehicle: saline) of the same compound?
**A.** 67 % of control

**Q.** What about the T/C [2] of the same compound?
**A.** 110 % of control

**Q.** And the T/C (dose: 1.25 mg/kg/injection, schedule: Q01DX010 (ip), vehicle: saline)?
**A.** 89 % of control

**Q.** And the T/C [3]?
**A.** 77 % of control

**Q.** And the T/C [4]?
**A.** 60 % of control

**Q.** What about the T/C (dose: 5.0 mg/kg/injection, schedule: Q01DX010 (ip), vehicle: carboxymethylcellulose (CMC)) of the same compound?
**A.** 40 % of control

**Q.** What about the T/C (dose: 5.0 mg/kg/injection, schedule: Q01DX010 (ip), vehicle: saline) of the same compound?
**A.** 36 % of control

**Q.** What about the T/C (dose: 10.0 mg/kg/injection, schedule: Q01DX010 (ip), vehicle: saline) of the same compound?
**A.** 5 % of control

**Q.** For S=c1nc[nH]c2nc[nH]c12, which T/C (dose: 3.12 mg/kg/injection, schedule: Q01DX010 (ip), vehicle: other) is on record?
**A.** 103 % of control

**Q.** What about the T/C (dose: 6.25 mg/kg/injection, schedule: Q01DX010 (ip), vehicle: other) of the same compound?
**A.** 83 % of control

**Q.** And the T/C (dose: 12.5 mg/kg/injection, schedule: Q01DX010 (ip), vehicle: other)?
**A.** 74 % of control and 77 % of control and 88 % of control

**Q.** And the T/C (dose: 18.7 mg/kg/injection, schedule: Q01DX010 (ip), vehicle: other)?
**A.** 45 % of control

**Q.** What about the T/C (dose: 34.0 mg/kg/injection, schedule: Q01DX001 (ip), vehicle: carboxymethylcellulose (CMC)) of the same compound?
**A.** 92 % of control

**Q.** With NC(=O)N(CCCl)N=O as the compound, how does the T/C (dose: 1.0 mg/kg/injection, schedule: Q01DX010 (ip), vehicle: carboxymethylcellulose (CMC)) read?
**A.** 104 % of control

**Q.** What about the T/C (dose: 2.0 mg/kg/injection, schedule: Q01DX010 (ip), vehicle: carboxymethylcellulose (CMC)) of the same compound?
**A.** 115 % of control

**Q.** And the T/C (dose: 4.0 mg/kg/injection, schedule: Q01DX010 (ip), vehicle: carboxymethylcellulose (CMC))?
**A.** 116 % of control

**Q.** And the T/C (dose: 8.0 mg/kg/injection, schedule: Q01DX010 (ip), vehicle: carboxymethylcellulose (CMC))?
**A.** 61 % of control

**Q.** What does the source list for Nc1nc2n[nH]nc2c(=O)[nH]1?
**A.** T/C (dose: 50.0 mg/kg/injection, schedule: Q01DX010 (ip), vehicle: other): 67 % of control and 71 % of control and 88 % of control; T/C (dose: 200.0 mg/kg/injection, schedule: Q01DX010 (ip), vehicle: other): 46 % of control

**Q.** How did the T/C (dose: 25.0 mg/kg/injection, schedule: Q01DX010 (ip), vehicle: carboxymethylcellulose (CMC)) turn out when O=c1[nH]c(=O)n(C2CC(O)C(CO)O2)cc1F (stereo not drawn) was run?
**A.** 42 % of control

**Q.** And the T/C (dose: 50.0 mg/kg/injection, schedule: Q01DX010 (ip), vehicle: carboxymethylcellulose (CMC))?
**A.** 30 % of control

**Q.** With O=[n+]1c2c(n([O-])c3ccccc31)-c1cccc3cccc-2c13 as the compound, how does the T/C (dose: 25.0 mg/kg/injection, schedule: Q01DX010 (ip), vehicle: saline) read?
**A.** 84 % of control

**Q.** And the T/C (dose: 50.0 mg/kg/injection, schedule: Q01DX010 (ip), vehicle: saline)?
**A.** 37 % of control

**Q.** What about the T/C (dose: 100.0 mg/kg/injection, schedule: Q01DX010 (ip), vehicle: saline) of the same compound?
**A.** 36 % of control

**Q.** And the T/C (dose: 200.0 mg/kg/injection, schedule: Q01DX010 (ip), vehicle: saline)?
**A.** 19 % of control
